The target of experiment [1] is T1, CXCR3 (Homo sapiens, UniProt P49682).
T1 sequence (P49682 1-368): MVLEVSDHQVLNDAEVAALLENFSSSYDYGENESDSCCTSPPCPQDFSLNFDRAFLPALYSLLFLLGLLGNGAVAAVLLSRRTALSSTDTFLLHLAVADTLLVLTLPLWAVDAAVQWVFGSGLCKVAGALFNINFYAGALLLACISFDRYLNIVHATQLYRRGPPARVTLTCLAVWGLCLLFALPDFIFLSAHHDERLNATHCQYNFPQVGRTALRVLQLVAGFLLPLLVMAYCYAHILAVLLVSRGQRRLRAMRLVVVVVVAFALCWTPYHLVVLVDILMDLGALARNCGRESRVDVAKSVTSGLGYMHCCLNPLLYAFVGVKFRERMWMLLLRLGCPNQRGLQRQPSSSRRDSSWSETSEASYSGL
The experiment in a line: Chemotaxis assay IP10, L1.2 recombinant cells expressing hCXCR3. The experiment is classed as cell-based. Particulars: L1.2 hCXCR3 cells, IP10 around 0.3 nM, 4 hours. On the procedure:
(§1) Human CXCR3 cDNA was amplified by PCR from a human cells cDNA library (Clontech) and subcloned into pcDNA3.1 (Invitrogen). Murine pre-B L1.2 cells were transfected with hCXCR3-pcDNA3.1 and were grown at 37° C., 5% CO2 in RPMI 1640 medium (Invitrogen, USA) supplemented with 5% heat inactivated fetal calf serum (Cancerra, Australia), 2 mM glutamine (Invitrogen), 50 units ml−1 penicillin, 50 μml−1 streptomycin. Stable transfectant clonal populations were selected using 800 μg/ml geneticin.
L1.2 recombinant cells expressing the receptor hCXCR3 were maintained in culture in RPMI 1640 (invitrogen), 5% Foetal Bovine Serum (invitrogen), 2 mM glutamine(invitrogen), 50 u/ml penicillin/streptomycin (invitrogen), at 37° C.-5% CO2—in an H2O saturated incubator. In order to stimulate the expression of the receptor, cells were incubated overnight with 5 mM butyric acid (Sigma)
This mix of cells/compounds was then incubated at 37° C.-5% CO2—in an H2O saturated incubator during 30 minutes. Cells were then dispensed as a drop on each corresponding wells of the chemotaxis system. Cell migration was then induced at 37° C.-5% CO2—in an H2O incubator during 4 hours. Filters were then removed and cells that had migrated were transferred in a black plate (Costar). The plates were stored overnight at −80° C. Cell migration ratio was calculated using the cyquant dye (Molecular Probes-C7026).

Experiment [2] addresses T1, CXCR3. Description: Radioligand binding, scintillation proximity assay ([125I]IP-10 or [125I]I-TAC competition) on CHO-CXCR3 cell membranes. The arrangement: host or cells: CHO cells stably expressing hCXCR3. Particulars: [125I]IP-10, human CXCR3 cell membranes, Cheng-Prusoff; read-out: Binding Ki (μM) IP10. On the procedure:
Human chinese hamster ovary (CHO) cell line stably expressing hCXCR3 was purchased from Euroscreen (Belgium) and culture in HAM's F12 (Invitrogen) containing 10% heat inactivated fetal calf serum (Cancerra, Australia), 50 units ml−1 penicillin, 50 μml−1 streptomycin, (Invitrogen, USA) and 400 μg/ml geneticin (G418) (Calbiochem, San Diego), according to the manufacturer.
CHO cells expressing the human CXCR3 were disrupted by nitrogen cavitation (Parr Instruments, USA) at 4° C., 800 p.s.i. for 30 min in 50 mM Tris-HCl pH 7.5, 2 mM EDTA, 250 mM Sucrose and protease inhibitors (Roche). Cell membranes were prepared by differential centrifugation (200×g for 10 min, then 100000×g for 60 min). Membranes pellets were re-suspended in 50 mM Tris-HCL pH 7.4, 1 mM EDTA, 10 mM MgCl2, 250 mM sucrose and inhibitor of proteases. Purified CHO-CXCR3 cell membranes were frozen in liquid nitrogen and stored at −80° C.
A scintillation proximity assay was used for radioligand competition and saturation binding assays. For each assay point, 1 to 5 μg of human CXCR3 cell membranes were incubated in a final volume of 100 μl in 96 well plates (Corning, USA) for 120 minutes with shaking at room temperature in presence of 100 μg of wheat germ agglutinin-coated scintillation proximity assay beads (WGA-SPA, RPNQ0001, GE Healthcare), 0.05-0.1 nM [125I]I-TAC (Perkin Elmer, 1366Cie/mmol) or 0.1 nM [125I]IP-10 (Perkin Elmer, 2200 Cie/mmol) in binding buffer (50 mM HEPES/KOH pH 7.4, 10 mM MgCl2, 1 mM CaCl2, 0.1% bovine serum albumin (BSA), 100 mM NaCl with protease inhibitor cocktail tablets (Roche). Assay was performed in presence of 1% dimethylsulphoxide (Me2SO). Binding activity was determined using a 1450 Micro-beta scintillation counter (Wallac, UK). Ki values were calculated using the Cheng-Prusoff equation (Cheng and Prusoff, 1973) and represent the average of at least three independent dose response experiments.

In experiment [3] the target is T1, CXCR3. The experiment in a line: Chemotaxis assay ITAC (CXCL11), L1.2-CXCR3 cells. The conditions noted are these: 1 nM CXCL11 (I-TAC), 4 hours. Also on record: expressed in transfected cells. It counts as cell-based. On the procedure:
as §1
L1.2-CXCR3 cells were grown for 24 hours at 0.5×10^6 cells/ml in chemotaxis medium containing 5 mM butyric acid (Sigma). Compounds were on one hand mixed with 1 nM of CXCL11 (I-TAC) in phenol-red free RPMI 1640 (invitrogen) supplemented with 5% fetal bovine serum in presence of 1% DMSO. The CXCL11/compounds mixture was then added to lower chambers of chemotaxis 96 well microplates (neuroprobe), and framed filters ([…] pore size) were put on top of the lower chambers. Compounds were on the other hand mixed with L1.2 CXCR3 cells and incubated in chemotaxis medium at 1.5×10^6 cells/ml in presence of 1% DMSO at 37° C., 5% CO2 for 30 minutes. Cells/compounds mixture was then added on top of the frame filters and migration was performed at 37° C., 5% CO2 for 4 hours. The number of migrated cells in the bottom chamber was determined using the CyQuant GR dye (Molecular Probe), according to the manufacturer.

Experiment [4] has as its target T1, CXCR3. The experiment in a line: CXCR3 Ca2+ mobilization (FLIPR), stable hCXCR3-CHO cell line, I-TAC stimulated. The experiment is classed as cell-based. Also on record: host or cells: CHO cells stably expressing hCXCR3. Particulars: hCXCR3-CHO cells, I-TAC 100 nM stimulated Ca2+ response; read-out: Ca-ITAC. In outline:
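CHO cells stably expressing hCXCR3, grown 18 hours after plating, loaded with calcium indicator dye 60 minutes; compounds equilibrated 20 minutes at room temperature. Fluorescence change evoked by 100 nM I-TAC read on FLIPR; activity expressed as percent of I-TAC response without compound (100%).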

For `O=C(NCC1CC1)c1ccc(CN(Cc2ccccn2)S(=O)(=O)c2ccc(Cl)cc2)cc1` [Example 5, 4-{[[(4-chlorophenyl)sulfonyl](pyridin-2-ylmethyl)amino]methyl}-N-(cyclopropylmethyl)benzamide], the IC50 on CXCR3 [1] was 0.2 µM. In addition, on CXCR3 [2], the Ki amounted to 0.168 µM.
Consider `O=C(NCc1cccc(Cl)c1)c1ccc(CN(Cc2ccccn2)S(=O)(=O)c2ccc(Cl)cc2)cc1` [Example 6, N-(3-chlorobenzyl)-4-{[[(4-chlorophenyl)sulfonyl](pyridin-2-ylmethyl)amino]methyl}benzamide], for which, at CXCR3 [2], the Ki amounted to 0.123 µM.
`CCOc1ccc(S(=O)(=O)N(Cc2ccccc2)Cc2ccc(C(=O)NCC3CC3)cc2)cc1` [Example 18, 4-{[Benzyl-(4-ethoxy-benzenesulfonyl)-amino]-methyl}-N-cyclopropylmethylbenzamide] registered an IC50 against CXCR3 [3] of 1680 nM. At CXCR3 [2], the Ki came to 0.78 µM.
As for `CCOc1ccc(S(=O)(=O)N(Cc2ccccc2)Cc2ccc(C(=O)NCc3ccccc3)cc2)cc1` [Example 33], the inhibitory constant (Ki) on CXCR3 [2] worked out at 0.197 µM. The IC50 at CXCR3 [4] worked out at 530 nM.
Consider `CCOc1ccc(S(=O)(=O)N(Cc2ccc(-c3nnn[nH]3)cc2)Cc2ccccn2)cc1` [Example 42, 4-Ethoxy-N-(pyridin-2-ylmethyl)-N-[4-(2H-tetrazol-5-yl)benzyl]benzenesulfonamide], for which the IC50 on CXCR3 [3] is 1040 nM; on CXCR3 [4] it was 520 nM. Further, the Ki at CXCR3 [2] is 0.161 µM.
In the case of `O=S(=O)(c1ccc(Cl)cc1)N(Cc1ccccn1)Cc1ccc(-c2nnn[nH]2)cc1F` [Example 57, 4-chloro-N-[2-fluoro-4-(1H-tetrazol-5-yl)benzyl]-N-(pyridin-2 ylmethyl)benzene sulfonamide], the IC50 on CXCR3 [1] amounted to 0.44 µM; against CXCR3 [3], 1780 nM; at CXCR3 [4], 5000 nM.
The corresponding values for `O=S(=O)(c1ccc(Cl)cc1)N(Cc1ccc(-c2nnn[nH]2)cc1)Cc1c(F)cccc1F` [Example 62, 4-chloro-N-(2,6-difluorobenzyl)-N-[4-(2H-tetrazol-5-yl)benzyl]benzene sulfonamide] are 0.183 µM, 212 nM and 44 nM.
`O=C(O)c1ccc(CN(Cc2ccccn2)S(=O)(=O)c2ccc(Cl)cc2)cc1F` [Example 64, 4-{[(4-Chloro-benzenesulfonyl)-pyridin-2-ylmethyl-amino]-methyl}-2-fluoro-benzoic acid]: the results for the IC50 at CXCR3 [1], against CXCR3 [3] and at CXCR3 [4] were 1.13 µM, 3150 nM and 3040 nM, respectively.
The corresponding values for `O=C(O)c1ccc(CN(Cc2ccccc2F)S(=O)(=O)c2ccc(Cl)cc2)cc1F` [Example 65, 4-{[(4-Chloro-benzenesulfonyl)-(2-fluoro-benzyl)-amino]-methyl}-2-fluorobenzoic acid] are 0.513 µM, 2300 nM and 1010 nM.
For `CC(C)(C)c1nc(CN(Cc2ccc(-c3nnn[nH]3)cc2)S(=O)(=O)c2ccc(Cl)cc2)no1` [Example 69, 4-chloro-N-(5-tert-butyl-1,2,4-oxadiazol-3-ylmethyl)-N-[4-(2H-tetrazol-5yl)benzyl]benzene sulfonamide], the values for the IC50 at CXCR3 [1], at CXCR3 [3] and at CXCR3 [4] were 0.254 µM, 560 nM and 56 nM, respectively.
The corresponding values for `O=S(=O)(c1ccc(Cl)cc1F)N(Cc1ccc(-c2nnn[nH]2)cc1)Cc1ccccn1` [Example 77] are 0.409 µM, 409 nM and 500 nM.
The corresponding values for `CCOc1ccc(S(=O)(=O)N(Cc2ccc(-c3nnn[nH]3)c(F)c2)Cc2ccccn2)cc1` [Example 80] are 0.158 µM, 909 nM and 55 nM.
The corresponding values for `N#Cc1ccc(S(=O)(=O)N(Cc2ccc(-c3nnn[nH]3)c(F)c2)Cc2ccccc2F)cc1` [Example 81, 4-cyano-N-(2-fluorobenzyl)-N-[3-fluoro-4-(2H-tetrazol-5-yl)benzyl]benzene sulfonamide] are 0.193 µM, 565 nM and 79 nM.
In the case of `N#Cc1ccc(S(=O)(=O)N(Cc2ccc(-c3nnn[nH]3)cc2)Cc2ccccc2F)cc1` [Example 83, 4-cyano-N-(2-fluorobenzyl)-N-[4-(2H-tetrazol-5-yl)benzyl]benzenesulfonamide], the IC50 is 0.236 µM on CXCR3 [1], 1040 nM on CXCR3 [3] and 10 nM at CXCR3 [4].
The matching figures for `CCOc1ccc(S(=O)(=O)N(Cc2ccc(C(=O)NCC(O)c3ccccc3)cc2)Cc2ccccn2)cc1` (stereo not shown) [Example 84]: 0.01 µM, 20 nM and 20 nM.
On to `CCOc1ccc(S(=O)(=O)N(Cc2ccc(C(=O)NC3(c4ccccc4)CC3)cc2)Cc2ccccn2)cc1` [Example 88], for which the IC50 at CXCR3 [1] came out at 0.01 µM; on CXCR3 [3], 30 nM; on CXCR3 [4] it was 10 nM.
As for `N#Cc1ccc(S(=O)(=O)N(Cc2ccc(C(=O)NCC(O)c3ccccc3)cc2)Cc2ccccn2)cc1` (stereo not shown) [Example 102], the IC50 on CXCR3 [1] is 0.01 µM; against CXCR3 [3], 20 nM; at CXCR3 [4] it was 20 nM.
On to `O=C(Nc1ccc(CN(Cc2ccccn2)S(=O)(=O)c2ccc(Cl)cc2)cc1)C1(c2ccccc2)CC1` [Example 162, 1-Phenyl-cyclopropanecarboxylic acid (4-{[(4-chloro-benzenesulfonyl)-pyridin-2-ylmethyl-amino]-methyl}-phenyl)-amide], for which the figures for the IC50 on CXCR3 [1], at CXCR3 [3] and at CXCR3 [4] were 0.07 µM, 170 nM and 170 nM, respectively.
In the case of `N#Cc1ccc(S(=O)(=O)N(Cc2ccc(NC(=O)C3(c4ccccc4)CC3)cc2)Cc2ccccn2)cc1` [Example 163], the IC50 at CXCR3 [1] was determined as 0.02 µM; on CXCR3 [3] it was 120 nM; on CXCR3 [4], 20 nM.

The values are drawn from patent publication US20110028509A1, “Sulfonamides” (MERCK SERONO SA, priority 2008, published 2011).
